Results reported in US20170008888A1 (KYORIN PHARMACEUTICAL CO., LTD., priority 2014, published 2017).
Like-named read-outs stand apart in the source and are kept apart here.

Key:
[1] = target: T1, BAZ2A (Homo sapiens, UniProt Q9UIF9); test: Bromodomain binding assay: BAZ2A
T1 construct: T7 phage strains displaying bromodomains were grown in parallel; made in house; host or cells: E. coli host derived from BL21, infected with T7 phage
Method: T7 phage strains displaying bromodomains were grown in parallel in 24-well blocks in an E. coli host derived from the BL21 strain. E. coli were grown to log-phase and infected with T7 phage from a frozen stock (multiplicity of infection=0.4) and incubated with shaking at 32° C. until lysis (90-150 minutes). The lysates were centrifuged (5,000×g) and filtered (0.2 μm) to remove cell debris. […] The liganded beads were blocked with excess biotin and washed with blocking buffer (SeaBlock (Pierce), 1% BSA, 0.05 Tween 20, 1 mM DTT) to remove unbound ligand and to reduce non-specific phage binding. […] Test compounds (T62 and 46) were prepared as 1000× stocks in 100% DMSO and subsequently diluted 1:10 in monoethylene glycol (MEG) to create stocks at 100× the screening concentration (resulting stock solution is 10% DMSO/90% MEG). The compounds were then diluted directly into the assays such that the final concentration of DMSO and MEG were 0.1% and 0.9%, respectively. All reactions were performed in polystyrene 96-well plates in a final volume of 0.135 ml. […] The bromodomain concentration in the eluates was measured by qPCR. Compounds were assayed for binding activity against a panel of 40 bromodomain-containing proteins.

[2] = test system: DNFB-induced ear inflammation mouse model; test: DNFB-induced ear inflammation (contact hypersensitivity) mouse model: ear weight; type: in vivo, mouse (Balb/c)
Method: In vivo T-cell mediated immune response was examined in a mouse model of CHS using the hapten dinitrofluorobenzene (DNFB) as the induction agent. Method for sensitization and elicitation of DNFB-induced CHS was modified from Xu et al. J. Exp. Med. 1996. 183:1001-1012. On Days 0 and 1 (sensitization), 20 μL of 0.5% v/v DNFB in acetone:olive oil (4:1) was applied to each hindpaw of 8 week old male mice (Balb/c, Charles River Laboratories; 10 mice per group unless otherwise noted). On Day 5 (elicitation) 10 μL of 0.2% v/v DNFB in acetone: olive oil (4:1) was applied to the dorsal surface of the right ear of each animal; 10 μL of acetone: olive oil (4:1) was applied to the dorsal surface of the left ear as control. Treatments were administered by group as indicated in the table below; on days when DNFB was used, the QD and the morning dose of BID as appropriate were administered 30 minutes-1 hr. prior to DNFB application. […] Approximately 24 hours after elicitation (Day 6), a 7 mm tissue punch from the central portion of both ears was collected and wet weights measured. The primary functional assessment was the difference in wet weights of the right (DNFB) vs. left (vehicle) ears compared to the vehicle treatment (Vehicle1-S) as an indicator of inflammation (Table 17). Ear tissue punches were flash frozen, stored at −70° C. and analyzed for cytokines (see below). Body weights of the mice were measured at baseline and at end of study, and there were no significant changes in weight in any treatment group during the study (data not shown).

[3] = test system: human PBMCs; test: Cytokine response by primary human PBMCs stimulated with PMA/ionomycin or LPS; type: cell-based; conditions: PBMC
Method: Freshly isolated human PBMCs were purchased from Astarte Biologics (Redmond, Wash.). Cells were seeded at 2e6 cells/ml in RPMI 1640 (Life Technologies, Grand Island, N.Y.) containing 10% (v/v) charcoal-dextran treated, heat inactivated FBS (Omega Scientific, Tarzana, Calif.), 0.05 mM 2-Mercaptoethanol (Sigma-Aldrich, St. Louis, Mo.), and 1×Pen/Strep Amphotericin B (Lonza, Allendale, N.J.). Cells were pre-treated with 0.1% DMSO or with test compounds for 1 h at 37° C. in a humidified atmosphere at 5% CO2. Compounds were tested at 10 μM down by ⅕ in a 4-point serial dilution series. Cells were then stimulated with either 50 ng/ml phorbol 12-myristate 13-acetate (PMA)(Sigma-Aldrich)+1 μg/ml ionomycin (Life Technologies) or with 100 ng/ml LPS from E. coli 0111:B4 (EMD Millipore, Billerica, Mass.) for 20 h at 37° C. in a humidified atmosphere at 5% CO2. Supernatant was collected and analyzed using the Bio-Plex Pro Human Cytokine 17-Plex Panel (Bio-Rad Laboratories, Hercules, Calif.) as per manufacturer's protocols. Magnetic beads were read on the Bio-Plex MAGPIX multiplex reader instrument using the accompanying xPONENT 4.2 acquisition software (Bio-Rad Laboratories). Data were analyzed via the Bio-Plex Manager software v6.1 (Bio-Rad Laboratories).

[4] = 25 mg/kg PO, BID on Day 5 (elicitation)
[5] = 60 mg/kg PO, BID Days 0-5 (from sensitization)
[6] = 60 mg/kg PO, BID on Day 5 (elicitation)
[7] = 100 ng/ml LPS 20 h, read-out: EC50 (μM) under LPS stimulation, G-CSF
[8] = 100 ng/ml LPS 20 h, read-out: EC50 (μM) under LPS stimulation, GM-CSF
[9] = 100 ng/ml LPS 20 h, read-out: EC50 (μM) under LPS stimulation, IFNγ
[10] = 100 ng/ml LPS 20 h, read-out: EC50 (μM) under LPS stimulation, IL-1β
[11] = 100 ng/ml LPS 20 h, read-out: EC50 (μM) under LPS stimulation, IL-2
[12] = 100 ng/ml LPS 20 h, read-out: EC50 (μM) under LPS stimulation, IL-4
[13] = 100 ng/ml LPS 20 h, read-out: EC50 (μM) under LPS stimulation, IL-6
[14] = 100 ng/ml LPS 20 h, read-out: EC50 (μM) under LPS stimulation, IL-7
[15] = 100 ng/ml LPS 20 h, read-out: EC50 (μM) under LPS stimulation, IL-10
[16] = 100 ng/ml LPS 20 h, read-out: EC50 (μM) under LPS stimulation, IL-12
[17] = 100 ng/ml LPS 20 h, read-out: EC50 (μM) under LPS stimulation, IL-13
[18] = 100 ng/ml LPS 20 h, read-out: EC50 (μM) under LPS stimulation, IL-17A
[19] = 100 ng/ml LPS 20 h, read-out: EC50 (μM) under LPS stimulation, MCP-1
[20] = 100 ng/ml LPS 20 h, read-out: EC50 (μM) under LPS stimulation, TNFα
[21] = PMA/ionomycin 20 h, read-out: EC50 (μM) under PMA/ionomycin stimulation, GM-CSF
[22] = PMA/ionomycin 20 h, read-out: EC50 (μM) under PMA/ionomycin stimulation, IL-4
[23] = PMA/ionomycin 20 h, read-out: EC50 (μM) under PMA/ionomycin stimulation, IL-5
[24] = PMA/ionomycin 20 h, read-out: EC50 (μM) under PMA/ionomycin stimulation, IL-6
[25] = PMA/ionomycin 20 h, read-out: EC50 (μM) under PMA/ionomycin stimulation, IL-7
[26] = PMA/ionomycin 20 h, read-out: EC50 (μM) under PMA/ionomycin stimulation, IL-10
[27] = PMA/ionomycin 20 h, read-out: EC50 (μM) under PMA/ionomycin stimulation, IL-12
[28] = PMA/ionomycin 20 h, read-out: EC50 (μM) under PMA/ionomycin stimulation, IL-13
[29] = PMA/ionomycin 20 h, read-out: EC50 (μM) under PMA/ionomycin stimulation, IL-17A
[30] = PMA/ionomycin 20 h, read-out: EC50 (μM) under PMA/ionomycin stimulation, MCP-1
[31] = PMA/ionomycin 20 h, read-out: EC50 (μM) under PMA/ionomycin stimulation, MIP-1β
[32] = PMA/ionomycin 20 h, read-out: EC50 (μM) under PMA/ionomycin stimulation, TNFα

T1 sequence (Q9UIF9 1793-1897 limits assumed, species assumed): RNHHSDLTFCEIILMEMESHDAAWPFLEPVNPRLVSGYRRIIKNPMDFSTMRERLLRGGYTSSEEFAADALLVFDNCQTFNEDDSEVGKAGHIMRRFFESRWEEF

SMILES	Kd [1] [µM]	% Reduction Weight Increase Vs. Vehicle 1 Weight Increase [2, 4] [%]	% Reduction Weight Increase Vs. Vehicle 1 Weight Increase [2, 5] [%]	% Reduction Weight Increase Vs. Vehicle 1 Weight Increase [2, 6] [%]	EC50 [3, 7] [µM]	EC50 [3, 8] [µM]	EC50 [3, 9] [µM]	EC50 [3, 10] [µM]	EC50 [3, 11] [µM]	EC50 [3, 12] [µM]	EC50 [3, 13] [µM]	EC50 [3, 14] [µM]	EC50 [3, 15] [µM]	EC50 [3, 16] [µM]	EC50 [3, 17] [µM]	EC50 [3, 18] [µM]	EC50 [3, 19] [µM]	EC50 [3, 20] [µM]	EC50 [3, 21] [µM]	EC50 [3, 22] [µM]	also measured
CCOc1cc(C(=O)N[C@H]2CC[C@H](O)CC2)ccc1Nc1cc2c(cn1)N(C)C(=O)c1ccccc1N2C [Compound T62]	> 20																				
CCOc1cc(C(=O)N2CCCN(C)CC2)ccc1Nc1cc2c(cn1)N(C)C(=O)c1ccccc1N2C [Compound 8]		−9.4	−38.5	−22.6	4.95	4.04	1.67	3.92	7.93	10.9	4.49	9.89	1.09	1.95	6.9	> 10	0.237	0.304	4.67	> 10	EC50 [3, 23]: 3.88 µM; EC50 [3, 24]: 2.35 µM; EC50 [3, 25]: > 10 µM; EC50 [3, 26]: 0.627 µM; EC50 [3, 27]: > 10 µM; EC50 [3, 28]: 4.22 µM; EC50 [3, 29]: > 10 µM; EC50 [3, 30]: 0.401 µM; EC50 [3, 31]: 4.28 µM; EC50 [3, 32]: 8.17 µM
CCOc1cc(C(=O)N2CCC(N3CCCC3)CC2)ccc1Nc1cc2c(cn1)N(C)C(=O)c1ccccc1N2C [Compound 46, 3-(2-Ethoxy-4-(4-(pyrrolidin-1-yl)piperidine-1-carbonyl)phenylamino)-5,11-dimethyl-5H-benzo[e]pyrido[3,4-b][1,4]diazepin-10(11H)-one]	> 20	−39.5	−39.5	−40.5	2.52	2.14	0.63	1.65	3.12	5.15	2.07	4.21	0.467	0.713	3.12	> 10	0.104	0.124	3.27	> 10	EC50 [3, 23]: 3.16 µM; EC50 [3, 24]: 0.9 µM; EC50 [3, 25]: > 10 µM; EC50 [3, 26]: 0.181 µM; EC50 [3, 27]: > 10 µM; EC50 [3, 28]: 4.77 µM; EC50 [3, 29]: > 10 µM; EC50 [3, 30]: 0.143 µM; EC50 [3, 31]: 8.07 µM; EC50 [3, 32]: 4.14 µM
